From a melting point compilation (Tetko et al.; mined from patent text by program, amines drawn as free bases though some values may be those of a salt)

| melting point | Compound |
| --- | --- |
| 82 to 84 °C | CC(C)OC(=O)C(C(=O)OC(C)C)=C1SC2C(S1)N(C(C)C)CCN2C(C)C (stereo unspecified) |
| 68.3 to 70.4 °C | CCCCCC1CCC(c2ccc(-c3cc(F)c(N)cc3F)cc2)CC1 (stereo unspecified) |
| 100 to 102 °C | C=C(c1ccc(N(CC)CC)cc1)c1ccc(N(CC)CC)cc1 |
| 90 to 95 °C | CC(=O)NC[C@H]1CN(c2ccc(N3C[C@@H]4C[C@H]3CS4)c(F)c2)C(=O)O1 |
| 226 to 228 °C | CC1=C(C(=S)Cc2ccccc2)C(c2ccccc2)C2=C(N1)c1ccccc1C2=O (stereo unspecified) |
| 126 to 127 °C | COCOCc1cccc(-c2ccc(C(=O)O)cc2)c1 |
| 107 to 108 °C | CC(C)C(=O)CNC(=O)c1ccc(F)cc1 |
| 218 to 220 °C | Brc1ccc(-c2cc(-c3ccc(Br)cc3)on2)cc1 |
| 193 to 195 °C | O=C(CCl)NC(C(=O)O)c1cscn1 (stereo unspecified) |
| 174 to 176 °C | CCOC(=O)C(=O)CC(=O)c1cn(Cc2ccc(Cl)cc2)c2ccccc2c1=O |
| 104 to 105 °C | CS(=O)(=O)NC(=O)C1(CCCCCCCCCCCCC2(C(=O)NCCO)CC2)CC1 |
| 139 to 141 °C | O=C(C=Cc1ccccc1)SC(Cn1ccnc1)c1ccc(Cl)cc1Cl (stereo unspecified) |
| 116 to 117 °C | O=C1C=CC(O)(c2nc3ccccc3o2)C=C1 |
| 212 to 218 °C | O=C1c2c(-c3ccccc3)noc2CCC1CCCN1CCC(n2c(=O)[nH]c3ccccc32)CC1 (stereo unspecified) |
| 126 to 127 °C | COc1cc2c(cc1OCc1ccccc1)C(O)CN(Cc1cc(OC)c(OC)c(OC)c1)C2 (stereo unspecified) |
| 142 to 146 °C | CS(=O)Cc1cc(=O)c2ccccc2o1 (stereo unspecified) |
| 167 to 169 °C | Oc1ccc2c(c1)C(C(Cl)(Cl)Cl)OC(C(Cl)(Cl)Cl)O2 (stereo unspecified) |
| 117 to 118 °C | CCOC(=S)c1cnc(Cc2ccccc2)nc1N |
| 129 to 130 °C | COC(=S)NS(=O)(=O)c1ccc(Cl)cc1 |
| 195 to 197 °C | Brc1ccc2c(c1)C(c1ccncc1)=Cc1ccccc1O2 |
| 109 to 112 °C | Cc1c[nH]c(CCC(=O)O)c1 |
| 96 to 98 °C | CC(C)(C)OC(=O)C[C@H](NC(=O)CNC(=O)CC1(c2ccc(C(N)=S)cc2)OCCO1)C(=O)N[C@@H](Cc1ccccc1)C(=O)OC(C)(C)C |
| 169 to 172 °C | CC(C)(C)OC(=O)Nc1ccc(-c2ccco2)cc1[N+](=O)[O-] |
| 192 to 195 °C | Cc1noc(C)c1-c1cn(Cc2ccccc2)c(=O)c2cccnc12 |

| melting point | Compound |
| --- | --- |
| 172 to 173 °C | C=Cc1ccc(C(=O)Oc2ccc(NS(C)(=O)=O)cc2)cc1 |
| 149 to 150 °C | CCOC(=O)c1cc2cc(OC(F)(F)F)cc(N(C)S(=O)(=O)c3cccs3)c2[nH]1 |
| 246 to 247 °C | CCNC(=O)Nc1cc(-c2c(-c3ccc(F)c(C)c3)nc3cc(C(C)(C)C)c(Cl)nn23)ccn1 |
| 46.5 to 48.5 °C | Fc1cccc2c1CNC2 |
| 134 to 136 °C | C[C@H](NS(=O)(=O)c1ccc2ccccc2c1)C(=O)Cl |
| 140 to 142 °C | COc1ccc(S(=O)(=O)Nc2ccccc2Nc2ccccc2)cc1 |
| 88.4 to 90.5 °C | COC(=O)Cc1ccc2c(c1)N(C)Cc1ccccc1C2=O |
| 236 to 237 °C | C[C@@H]1O[C@](/C=C/C2CC2)(C(F)(F)F)c2c(ccc3c2OCO3)NC1=O (relative stereo) |
| 39 to 42 °C | CCC(COC(C)=O)Nc1c(-c2c(F)cc(F)cc2F)c(Cl)nc2ncnn12 (stereo unspecified) |
| 92 to 93 °C | CCOc1nn(-c2ccccn2)cc1CCCOc1ccc(CCC(=O)O)cc1OC |
| 124 to 125 °C | CCCCCCOc1ccc(Nc2cc(Nc3ccc4c(c3)OCCO4)ncc2F)cc1 |
| 85 to 91 °C | O=C(N1c2ccccc2C=Cc2ccccc21)C(F)(F)F |
| 270 °C | CC(=O)c1cccc(NC(=O)c2cc(C(=O)Nc3cccc(C(C)=O)c3)cc(C(=O)Nc3cccc(C(C)=O)c3)c2)c1 |
| 115 °C | CC(C)(C)OC1OC(=O)C2C1C2(C)C (stereo unspecified) |
| 119 to 121 °C | COC(=O)c1csc(Cl)c1NC(C)=O |
| 119 °C | CC(C)c1cccc(S(=O)(=O)n2c(CCCC(=O)O)cc3nc(Cl)ccc32)c1 |
| 206 °C | COc1ccccc1S(=O)(=O)C(C)(Cc1ccc2ncccc2c1)C(=O)NO (stereo unspecified) |
| 232 to 234 °C | Fc1cccc2nc(S)oc12 |
| 166 to 168 °C | Nc1ncnc2c1c(-c1ccccc1)cn2-c1cccc(OCCCl)c1 |
| 178 to 180 °C | O=C(NCc1cc[nH]n1)c1ccnc(N2CCN(Cc3ccc(F)cc3)C2=O)c1 |
| 128 °C | NS(=O)(=O)c1ccc(-c2cc(-c3c[nH]nc3-c3ccccn3)ccc2F)cc1 |
| 151 to 152 °C | CC1Cc2cc(N)ccc2C1=O (stereo unspecified) |
| 37 to 39 °C | Cc1ccc(C(Cl)=C(Cl)Cl)cn1 |
| 200 °C | Cc1nc2scc(C)n2c(=O)c1CCN1CCC(C(=O)c2ccc(F)cc2)CC1 |

| melting point | Compound |
| --- | --- |
| 113 to 114 °C | CNC(=C[N+](=O)[O-])NCCSCc1cc2ccc(CN(C)C)cc2o1 |
| 248 to 250 °C | COc1cc(C(=O)NS(=O)(=O)c2ccccc2C)ccc1Cc1c[nH]c2ccc(NC(=O)CC3CCCC3)cc12 |
| 159 to 160 °C | CCCCCS(=O)(=O)NC(=O)/C=C/c1cc(OCCCC)nn1Cc1ccc(C(F)(F)F)cc1 |
| 80 to 81 °C | COc1ccc2cc([C@H](C)C(=O)OCC(=O)N(C)CCO[N+](=O)[O-])ccc2c1 |
| 221 to 224 °C | COc1cc(CNc2nc(N)n3nc(-c4ccco4)nc3n2)cc(OC)c1OC |
| 268 to 269 °C | Cc1ccc(O)c(-c2nc(-c3cc(C)ccc3O)n(-c3ccc(C(=O)O)cc3)n2)c1 |
| 86 to 88 °C | CC(=O)SCC(C)C(=O)N(CC(=O)O)C1CC1 (stereo unspecified) |
| 108 to 110 °C | CCCCN(CCCOc1ccc(S(=O)(=O)c2c(C(C)C)cn3ccccc23)cc1)C(C)c1ccc(OC)c(OC)c1 (stereo unspecified) |
| 159 to 162 °C | COC(=O)C=Cc1cc([N+](=O)[O-])ccc1Cl |
| 141 to 142 °C | C#CCSc1ccccc1C=CCN(O)C(N)=O |
| 174 to 175 °C | COc1cc2c(cc1OC)C(Cc1ccc(NC(C)=O)c(I)c1)N(C(=O)C(F)(F)F)CC2 (stereo unspecified) |
| 131 to 133 °C | CC(C)(C(=O)Nc1ccc(Cl)cc1)/C(F)=C/Br |
| 188 to 190 °C | COC(=O)Nc1cc(OS(=O)(=O)c2ccc(C)cc2)nc(N)n1 |
| 92 to 93 °C | CCOC(=NC(=O)OC)NC(=O)Nc1ccc(Cl)cc1Cl |
| 182 °C | CCONC(=O)C(=O)NN |
| 126 to 130 °C | C=CCOc1nc(N(CC=C)CC=C)nc(N2CCc3ccccc3CC2)c1C#N |
| 151 to 155 °C | CN(C)C1CCN(c2nc(N3CCOCC3)c3ncnc(N(CC(=O)O)Cc4ccccc4)c3n2)CC1 |
| 166 to 168 °C | CC(C)(C)OC(=O)Nc1ccc(Nc2n[nH]c(N)c2C#N)cc1 |
| 135 to 140 °C | C#Cc1ccc(NC(=O)CCCC(=O)O)cc1 |
| 121 °C | Cc1cc(C)cc(C(=O)N2CCC(N3CCC(NC(=O)c4ccccc4N)CC3)CC2Cc2ccccc2)c1 (stereo unspecified) |
| > 300 °C | Cc1ccn(-c2nccc3[nH]c(=O)ccc23)n1 |
| 72 to 74 °C | CCOC(=O)c1cc(=O)c2c(OCC(O)COc3cccc(C)c3)cccc2o1 (stereo unspecified) |
| 187 to 188 °C | O=C(O)c1cccc(-c2ncco2)c1 |
| 154 °C | C/C=C/c1ccc2c(NCc3ccc(NC(=O)C4CCN(Cc5ccccc5)CC4)cc3)nc(N(C)C)nc2c1 |

| melting point | Compound |
| --- | --- |
| 169 to 171 °C | Nc1ncnc2c1c(-c1ccc(Oc3ccccc3CN3CCOCC3)cc1)cn2C1CCOC1 (stereo unspecified) |
| 176 to 180 °C | CC(C)c1nc(N)nc(-c2ccc(F)c3ccccc23)c1Br |
| 209 to 210 °C | CCOCC(C)(C)COc1ccc(-c2ccc3c(c2)C=C(C(=O)Nc2ccc(CN(C)C4CCOCC4)cc2)CCS3(=O)=O)cc1 |
| 163 °C | CS(=O)(=O)C1Cc2cc(Cl)ccc2C1O (stereo unspecified) |
| 68 to 70 °C | CCOCC(=O)NC1CCN(C[C@@]23C[C@@H](c4ccccc42)c2ccc(Cl)cc23)CC1 |
| 176 to 182 °C | CN1CN(C)c2nc3n(Cc4ccccc4)c(=O)cc(O)n3c2C1=O |
| 206 to 209 °C | O=C(Cn1nnc2cccnc21)Nc1ccc(-n2nc(C(F)(F)F)cc2C2CC2)cc1 |
| 185 to 186 °C | Cc1cc(C(F)(F)F)nn1CC(=O)N1CCC(C(N)=S)CC1 |
| > 290 °C | Cn1ncc(C(=O)O)c1C(=O)Nc1ccn2nc(-c3ccnc(F)c3)nc2c1 |
| 182 to 184 °C | FC(F)(F)c1ccc(CN2CC3(COc4cc5c(cc43)CCO5)c3c(Br)cccc32)o1 (stereo unspecified) |
| 111 to 113 °C | CSc1ccc(C(=N)Nc2ccc(C)c(C)c2)cc1 |
| 188 to 191 °C | CC(=O)c1c(O)ccc2[nH]ncc12 |
| 198 to 200 °C | CSc1[nH]cc(CCc2ccccc2)c1[N+](=O)[O-] |
| 66 to 69 °C | Clc1cc2c(-c3ccccc3)coc2c2ccccc12 |
| 181 °C | CCCCCCCCCCCCCCCCCCCCOC(=O)Nc1ccc(NC(=O)NS(=O)(=O)c2ccc3ccccc3c2)cc1 |
| 179 to 181 °C | COc1cc(N)c(Cl)cc1C(=O)NC1CCN(CC2CCN(C(=O)c3ccco3)CC2)CC1 |
| 82 to 84 °C | COc1cccc(CC(O)C2CCNCC2)c1OC (stereo unspecified) |
| > 300 °C | OCc1cnc2cc(Br)ccc2c1O |
| 112 to 113 °C | CCN1C(=O)Cc2cc3occc3cc21 |
| 107 to 108 °C | CCCCCc1ncc(C(=O)OCC)c(NCc2ccc(-c3ccccc3-c3nnnn3C(c3ccccc3)(c3ccccc3)c3ccccc3)cc2)n1 |
| 43 °C | Fc1c(Cl)cccc1Br |
| 34 to 36 °C | CCCCNC(=O)N(N)CCCC |
| 119 to 120 °C | CCOC(=O)CN(CCc1ccccc1)C(=O)[C@@H]1C[C@@H](SC(C)=O)CN1S(=O)(=O)c1ccc2ccccc2c1 |

| Compound | melting point |
| --- | --- |
| Cc1ccc2c(C(=O)C3CSC(c4cccnc4)N3)c[nH]c2c1 (stereo unspecified) | 132 to 138 °C |
| COc1ccc2c3c1OC1CC(O)C=CC31CCN(C(=O)Nc1ccccc1)C2 (stereo unspecified) | 198 to 199 °C |
| C1=C(c2ccccc2)CCN(CCCCc2ccncc2)C1 | 89 to 90 °C |
| COc1ccc(CCNC(C)(C)CO)cc1 | 114 to 115 °C |
| O=C1CCN(C(=O)c2ccc3nonc3c2)CC1 | 136 to 139 °C |
| COc1cc(/C=C/c2ccc(C(C)C)cc2)cc(OC)c1OC | 74 to 75 °C |
